Test results as given in patent EP0512570B1, “Urea derivatives, processes for the preparation thereof and pharmaceutical composition comprising the same” (FUJISAWA PHARMACEUTICAL CO., LTD., priority 1991, dated 1992).

Molecular target: Acyl-CoA : cholesterol acyltransferase (ACAT)
Assay: Acyl-CoA : cholesterol acyltransferase (ACAT) inhibitory activity
Type: biochemical, Japanese white rabbits
Conditions: enzyme from mucosal microsome fraction of small intestine of rabbits fed 2% cholesterol diet; [14C]oleoyl-CoA and endogenous cholesterol, 37°C for 5 minutes
Protocol: Acyl-CoA : cholesterol acyltransferase (ACAT) inhibitory activity
ACAT activity was measured by the method of Heider et al. described in Journal of Lipid Research, Vol. 24, page 1127 (1983). The enzyme ACAT was prepared from the mucosal microsome fraction of the small intestine of male, 18-week old Japanese white rabbits which had been fed diet containing 2% cholesterol for 8 weeks. The inhibitory activity of compounds were calculated by measuring the amount of the labeled cholesterol ester produced from [¹⁴C]oleoyl-CoA and endogenous cholesterol as follows. [¹⁴C]oleoyl-CoA and microsome were incubated with test compounds at 37°C for 5 minutes. The reaction was stopped by the addition of chloroform-methanol (2:1, V/V). Cholesterol ester fraction in the chloroform-methanol extracts was isolated by thin-layer chromatography and was counted their label.

| IC50 | Compound |
| --- | --- |
| 73 nM | CCCCCCCN(Cc1cc2ccccc2o1)C(=O)Nc1c(F)cc(F)cc1F [Example 3 - (9), N-(Benzofuran-2-ylmethyl)-N-heptyl-N'-(2,4,6-trifluorophenyl)urea] |
| 24 nM | O=C(Nc1c(F)cc(F)cc1F)N(Cc1oc2ccccc2c1-c1ccccc1)C1CCCCCC1 [Example 3 - (10), N-Cycloheptyl-N-(3-phenylbenzofuran-2-ylmethyl)-N'-(2,4,6-trifluorophenyl)urea] |
| 6.6 nM | CCCCCCCN(Cc1oc2ccc(CC)cc2c1-c1ccc(Cl)cc1)C(=O)Nc1c(F)cc(F)cc1F [Example 3 - (35), N-[3-(4-Chlorophenyl)-5-ethylbenzofuran-2-ylmethyl]-N-heptyl-N'-(2,4,6-trifluorophenyl)urea] |
| 8.8 nM | Cc1ccc2oc(CN(Cc3ccc(F)cc3)C(=O)Nc3c(F)cc(F)cc3F)c(-c3ccc(Cl)cc3)c2c1 [Example 5 - (7), N-[3-(4-Chlorophenyl)-5-methylbenzofuran-2-ylmethyl]-N-(4-fluorobenzyl)-N'-(2,4,6-trifluorophenyl)urea] |
| 8.9 nM | Cc1ccc2oc(CN(Cc3ccco3)C(=O)Nc3c(F)cc(F)cc3F)c(-c3ccc(Br)cc3)c2c1 [Example 5 - (15), N-[3-(4-Bromophenyl)-5-methylbenzofuran-2-ylmethyl]-N-furfuryl-N'-(2,4,6-trifluorophenyl)urea] |
| 7.4 nM | Cc1ccc2oc(CN(Cc3ccccc3)C(=O)Nc3c(F)cc(F)cc3F)c(-c3ccc(Cl)cc3)c2c1 [Example 6 - (2), N-Benzyl-N-[3-(4-chlorophenyl)-5-methylbenzofuran-2-ylmethyl]-N'-(2,4,6-trifluorophenyl)urea] |
| 8.4 nM | Cc1ccc(-c2c(CN(Cc3ccccc3)C(=O)Nc3c(F)cc(F)cc3F)oc3ccc(Cl)cc23)cc1 [Example 6 - (6), N-Benzyl-N-[5-chloro-3-(4-methylphenyl)benzofuran-2-ylmethyl]-N'-(2,4,6-trifluorophenyl)urea] |
| 4.4 nM | Cc1ccc(CN(Cc2oc3ccc(C)cc3c2-c2ccc(Cl)cc2)C(=O)Nc2c(F)cc(F)cc2F)cc1 [Example 6 - (7), N-[3-(4-Chlorophenyl)-5-methylbenzofuran-2-ylmethyl]-N-(4-methylbenzyl)-N'-(2,4,6-trifluorophenyl)urea] |
